Reference: patent publication US10308644B2, “Heterocyclic compounds as immunomodulators” (Incyte Corporation, priority 2016, dated 2019)

What follows are compounds tested against PD-1/PD-L1 (Homo sapiens (Human), UniProt Q9NZQ7) (assay: PD-1/PD-L1 Homogeneous Time-Resolved Fluorescence (HTRF) Binding Assay). Conditions: recombinant human PD-1 (3 nM) and PD-L1 (10 nM), 25° C., PBS pH 7.4.
Summary of the method: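 Fc-tagged human PD-1 (25-167, 3 nM) and His-tagged PD-L1 (19-238, 10 nM) preincubated with inhibitor 40 min in PBS pH 7.4, 0.05% Tween-20, 0.1% BSA, 1% DMSO, 25 °C. Binding detected by HTRF (Eu anti-IgG/APC anti-His, 665/620 nm) after 60 min; IC50 from percent control activity.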

PD-1/PD-L1, sequence (Q9NZQ7 19-238): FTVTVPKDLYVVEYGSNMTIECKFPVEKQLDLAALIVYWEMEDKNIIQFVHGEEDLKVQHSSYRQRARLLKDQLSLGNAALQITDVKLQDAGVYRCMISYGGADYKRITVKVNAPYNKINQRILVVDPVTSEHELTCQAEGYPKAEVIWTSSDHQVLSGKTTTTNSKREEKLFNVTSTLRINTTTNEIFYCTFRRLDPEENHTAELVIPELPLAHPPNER

IC50, ≤ 10 nM:
Cc1c(-c2nc3cc(CN4CC[C@@H](O)C4)cc(C#N)c3o2)cccc1-c1cccc(NC(=O)c2nc3c(n2C)CCN(CCC2CCC(C(=O)O)CC2)C3)c1Cl (stereo partly drawn) [Example 265, (R)-4-(2-(2-(2-chloro-3′-(7-cyano-5-((3-hydroxypyrrolidin-1-yl)methyl)benzo[d]oxazol-2-yl)-2′-methylbiphenyl-3-ylcarbamoyl)-1-methyl-6,7-dihydro-1H-imidazo[4,5-c]pyridin-5(4H)-yl)ethyl)cyclohexane carboxylic acid]
Cc1c(-c2nc3c(o2)CCNC3)cccc1-c1cccc(-c2nc3cc(CN4CC[C@H](C(=O)O)C4)cc(Cl)c3o2)c1C [Example 76, (S)-1-((7-chloro-2-(2,2′-dimethyl-3′-(4,5,6,7-tetrahydrooxazolo[4,5-c]pyridin-2-yl)-[1,1′-biphenyl]-3-yl)benzo[d]oxazol-5-yl)methyl)pyrrolidine-3-carboxylic acid]
Cc1c(Nc2nccc3cc(CN4CC[C@H](O)C4)cnc23)cccc1-c1cccc(-c2nc3cc(CN4CC[C@H](C(=O)O)C4)cc(Cl)c3o2)c1C [Example 17, (S)-1-((7-chloro-2-(3′-(3-(((S)-3-hydroxypyrrolidin-1-yl)methyl)-1,7-naphthyridin-8-ylamino)-2,2′-dimethylbiphenyl-3-yl)benzo[d]oxazol-5-yl)methyl)pyrrolidine-3-carboxylic acid]
Cc1c(-c2nc3cc(CN4CC5CC4CC5C(=O)O)cc(C#N)c3o2)cccc1-c1cccc(-c2nc3c(s2)CN(C(=O)CN(C)C)C3)c1C (centres unmarked) [Example 237, 2-((7-cyano-2-(3′-(5-(2-(dimethylamino)acetyl)-5,6-dihydro-4H-pyrrolo[3,4-d]thiazol-2-yl)-2,2′-dimethylbiphenyl-3-yl)benzo[d]oxazol-5-yl)methyl)-2-azabicyclo[2.2.1]heptane-5-carboxylic acid]
CCN(C)CC(=O)N1Cc2nc(-c3cccc(-c4cccc(-c5nc6cc(CN7CC[C@@](C)(C(=O)O)C7)cc(C#N)c6o5)c4C)c3C)sc2C1 [Example 218, (R)-1((7-cyano-2-(3′-(5-(2-(ethyl(methyl)amino)acetyl)-5,6-dihydro-4H-pyrrolo[3,4-d]thiazol-2-yl)-2,2′-dimethylbiphenyl-3-yl)benzo[d]oxazol-5-yl)methyl)-3-methylpyrrolidine-3-carboxylic acid]
Cc1c(Nc2nccc3cc(CN4CCC(C(=O)O)CC4)cnc23)cccc1-c1cccc(-c2nc3cc(CNC[C@H](C)O)cc(C#N)c3o2)c1C [Example 212, (S)-1-((8-(3′-(7-cyano-5-((2-hydroxypropylamino)methyl)benzo[d]oxazol-2-yl)-2,2′-dimethylbiphenyl-3-ylamino)-1,7-naphthyridin-3-yl)methyl)piperidine-4-carboxylic acid]
Cc1c(Nc2nccc3cc(CN4CC[C@H](O)C4)cnc23)cccc1-c1cccc(-c2nc3cc(CN4CC(C(=O)O)C4)cc(Cl)c3o2)c1C [Example 23, (S)-1-((7-chloro-2-(3′-(3-((3-hydroxypyrrolidin-1-yl)methyl)-1,7-naphthyridin-8-ylamino)-2,2′-dimethylbiphenyl-3-yl)benzo[d]oxazol-5-yl)methyl)azetidine-3-carboxylic acid]
Cc1c(Nc2nccc3cc(CN4CC[C@@H](O)C4)cnc23)cccc1-c1cccc(-c2nc3cc(CN[C@H]4CCC[C@@H]4C(=O)O)cc(C#N)c3o2)c1C [Example 179, (1S,2S)-2-((7-cyano-2-(3′-(3-(((R)-3-hydroxypyrrolidin-1-yl)methyl)-1,7-naphthyridin-8-ylamino)-2,2′-dimethylbiphenyl-3-yl)benzo[d]oxazol-5-yl)methylamino)cyclopentanecarboxylic acid]
Cc1c(-c2nc3cc(CN4CCC(C(=O)O)CC4)cc(C#N)c3o2)cccc1-c1cccc(NC(=O)c2nc3c(n2C)CCN(C[C@@H](C)O)C3)c1Cl [Example 155, (R)-1-((2-(2′-chloro-3′-(5-(2-hydroxypropyl)-1-methyl-4,5,6,7-tetrahydro-1H-imidazo[4,5-c]pyridine-2-carboxamido)-2-methylbiphenyl-3-yl)-7-cyanobenzo[d]oxazol-5-yl)methyl)piperidine-4-carboxylic acid]
Cc1c(-c2nc3cc(CN4CC5(CC(C(=O)O)C5)C4)cc(C#N)c3o2)cccc1-c1cccc(-c2nc3c(s2)CN(C(=O)CN2CC[C@H](O)C2)C3)c1C [Example 233, 2-((7-cyano-2-(3′-(5-(2-((S)-3-hydroxypyrrolidin-1-yl)acetyl)-5,6-dihydro-4H-pyrrolo[3,4-d]thiazol-2-yl)-2,2′-dimethylbiphenyl-3-yl)benzo[d]oxazol-5-yl)methyl)-2-azaspiro[3.3]heptane-6-carboxylic acid]
CNCc1cnc2c(Nc3cccc(-c4cccc(-c5nc6cc(CN7CC[C@@](C)(C(=O)O)C7)cc(C#N)c6o5)c4C)c3C)nccc2c1 [Example 197, (R)-1-((7-cyano-2-(2,2′-dimethyl-3′-(3-((methylamino)methyl)-1,7-naphthyridin-8-ylamino)biphenyl-3-yl)benzo[d]oxazol-5-yl)methyl)-3-methylpyrrolidine-3-carboxylic acid]
Cc1c(-c2nc3cc(CN4CCC(C(=O)O)CC4)cc(C#N)c3o2)cccc1-c1cccc(Nc2nccc3cc(CN4CC[C@@H](O)C4)cnc23)c1Cl [Example 188, (R)-1-((2-(2′-chloro-3′-(3-((3-hydroxypyrrolidin-1-yl)methyl)-1,7-naphthyridin-8-ylamino)-2-methylbiphenyl-3-yl)-7-cyanobenzo[d]oxazol-5-yl)methyl) piperidine-4-carboxylic acid]
Cc1c(-c2nc3cc(CN4CC[C@@H](C(=O)O)C4)cc(Cl)c3o2)cccc1-c1cccc(Nc2nccc3cc(CN4CC[C@@H](O)C4)cnc23)c1Cl [Example 82, (R)-1-((7-chloro-2-(2′-chloro-3′-(3-(((R)-3-hydroxypyrrolidin-1-yl)methyl)-1,7-naphthyridin-8-ylamino)-2-methylbiphenyl-3-yl)benzo[d]oxazol-5-yl)methyl)pyrrolidine-3-carboxylic acid]
Cc1c(-c2nc3c(o2)CN(C(=O)CN(C)CCO)C3)cccc1-c1cccc(-c2nc3cc(CN4CC[C@@](C)(C(=O)O)C4)cc(C#N)c3o2)c1C [Example 252, (R)-1-((7-cyano-2-(3′-(5-(N-(2-hydroxyethyl)-N-methylglycyl)-5,6-dihydro-4H-pyrrolo[3,4-d]oxazol-2 yl)-2,2'-dimethyl-[1,1′-biphenyl]-3-yl)benzo[d]oxazol-5-yl)methyl)-3-methylpyrrolidine-3-carboxylic acid]
Cc1c(-c2nc3cc(CN4CC[C@@](C)(C(=O)O)C4)cc(C#N)c3o2)cccc1-c1cccc(-c2nc3c(s2)CN(C(=O)CN(C)[C@@H](C)CO)C3)c1C [Example 226, (R)-1-((7-cyano-2-(3′-(5-(2-(((S)-1-hydroxypropan-2-yl)(methyl)amino)acetyl)-5,6-dihydro-4H-pyrrolo[3,4-d]thiazol-2-yl)-2,2′-dimethylbiphenyl-3-yl)benzo[d]oxazol-5-yl)methyl)-3-methylpyrrolidine-3-carboxylic acid]
Cc1c(Nc2nccc3cc(CNC[C@H](C)O)cnc23)cccc1-c1cccc(-c2nc3cc(CN4CC[C@@](C)(C(=O)O)C4)cc(C#N)c3o2)c1C [Example 191, (R)-1-((7-cyano-2-(3′-(3-(((S)-2-hydroxypropylamino)methyl)-1,7-naphthyridin-8-ylamino)-2,2′-dimethylbiphenyl-3-yl)benzo[d]oxazol-5-yl)methyl)-3-methylpyrrolidine-3-carboxylic acid]
Cc1c(-c2nc3c(o2)CN(C(=O)CN2CC4CC2CN4C)C3)cccc1-c1cccc(-c2nc3cc(CN4CC[C@@H](C(=O)O)C4)cc(C#N)c3o2)c1C (stereo partly drawn) [Example 255, (3R)-1-((7-cyano-2-(2,2′-dimethyl-3′-(5-(2-(5-methyl-2,5-diazabicyclo[2.2.1]heptan-2-yl)acetyl)-5,6-dihydro-4H-pyrrolo[3,4-d]oxazol-2-yl)biphenyl-3-yl)benzo[d]oxazol-5-yl)methyl)pyrrolidine-3-carboxylic acid]
CCN(CCO)C1CCN(c2cccc(-c3cccc(-c4nc5cc(CN6CC[C@@H](C(=O)O)C6)cc(C#N)c5o4)c3C)c2Cl)CC1 [Example 48, (R)-1-((2-(2′-chloro-3′-(4-(ethyl(2-hydroxyethyl)amino)piperidin-1-yl)-2-methylbiphenyl-3-yl)-7-cyanobenzo[d]oxazol-5-yl)methyl)pyrrolidine-3-carboxylic acid]
Cc1c(-c2nc3cc(CN4CC[C@@H](C(=O)O)C4)cc(C#N)c3o2)cccc1-c1cccc(Nc2nccc3cc(CN4CCOC4=O)cnc23)c1Cl [Example 31, (R)-1-((2-(2′-chloro-2-methyl-3′-(3-((2-oxooxazolidin-3-yl)methyl)-1,7-naphthyridin-8-ylamino)biphenyl-3-yl)-7-cyanobenzo[d]oxazol-5-yl)methyl)pyrrolidine-3-carboxylic acid]
Cc1c(NC(=O)c2nc3c(n2C)CCN(C)C3)cccc1-c1cccc(-c2nc3cc(CN4CC[C@@](C)(C(=O)O)C4)cc(C#N)c3o2)c1C [Example 260, (R)-1-((7-cyano-2-(3′-(1,5-dimethyl-4,5,6,7-tetrahydro-1H-imidazo[4,5-c]pyridine-2-carboxamido)-2,2′-dimethylbiphenyl-3-yl)benzo[d]oxazol-5-yl)methyl)-3-methylpyrrolidine-3-carboxylic acid]
